Assay [1] deals with T1, human AChE (Homo sapiens, UniProt P22303).
T1 construct: purchased Sigma-Aldrich
The experiment in a line: biochemical. The settings on record: for inhibition at 10 µM: read-out: % Inhibition at 10 µM; for IC50: mean ± SEM. The procedure: AChE and BChE inhibition studies were performed in 96 well plates by the method of Ellman, et al.. […] The mixture was preincubated for 20 min at 37 °C before addition of 50 μL (0.120 mM) of the substrate, acetylthiocholine (ATC) iodide or butyrylthiocholine (BTC) iodide (depending on the enzyme). […] Each assay was performed in triplicate. […] The percentage of inhibition was calculated using the expression: (E–S)/E × 100 where E is the activity of the enzyme without test compound and S is the activity of the enzyme with test compound.
(§1) IC50 values were obtained from concentration-inhibition experiments by nonlinear regression analysis using PRISM® v5.0 (GraphPad Inc., San Diego, CA, USA).

Assay [2] has as its target T1, human AChE. The experiment in a line: Kinetic characterisation of AChE inhibition (Lineweaver-Burk, nonlinear regression mixed-model). The settings on record: substrate acetylthiocholine 0.1-1.0 mM, read-out: Apparent Ki, human AChE. Type of assay: biochemical. The method, then: […]. The mode of inhibition was investigated using Lineweaver–Burk plots of 1/initial reaction rate (1/V) against 1/substrate concentration (1/[S]). Apparent inhibition constant (Ki and Ki′) values were determined using the nonlinear regression mixed-model inhibition method in PRISM® v5.0 (GraphPad Inc.).

A further assay concerns the target T2, equine BChE (Equus caballus, UniProt P81908).
T2 construct: purchased Sigma-Aldrich
The experiment in a line: Equine BChE inhibition, Ellman's method. Type of assay: biochemical. Particulars: for IC50: equine BChE, mean ± SEM; for Selectivity for AChE: IC50 (BChE)/IC50 (AChE). The method, then: The IC50 values of the four compounds that gave the greatest inhibition of AChE were also determined for equine BChE, which is readily available and is considered a good model for human BChE [23], as the equine form has 90% sequence identity compared to the human form. […].
AChE and BChE inhibition studies were performed in 96 well plates by the method of Ellman, et al.. 110 μL of sodium phosphate buffer (pH 8.0) was added to each well followed by 20 μL of test compound, 50 μL of 5,5′-dithiobis-(2-nitrobenzoic acid) (DTNB) (0.126 mM) and 20 μL of AChE or BChE (0.15 units/mL). The mixture was preincubated for 20 min at 37 °C before addition of 50 μL (0.120 mM) of the substrate, acetylthiocholine (ATC) iodide or butyrylthiocholine (BTC) iodide (depending on the enzyme). The hydrolysis of ATC or BTC was monitored using an Infinite® M200 PRO multimode reader (Tecan Group Ltd., Männedorf, Switzerland) by measuring the absorbance due to yellow 5-thio-2-nitrobenzoate anion at 412 nm every 30 s for 25 min. Each assay was performed in triplicate. […] The percentage of inhibition was calculated using the expression: (E–S)/E × 100 where E is the activity of the enzyme without test compound and S is the activity of the enzyme with test compound.
as §1

Where [3] appears, read: human recombinant AChE, 10 µM, mean of triplicate, na = no activity observed at 10 µM.

Molecules are shown by their SMILES. Read-outs that look alike come from different tables or passages of the source.

T2 sequence (P81908 whole entry): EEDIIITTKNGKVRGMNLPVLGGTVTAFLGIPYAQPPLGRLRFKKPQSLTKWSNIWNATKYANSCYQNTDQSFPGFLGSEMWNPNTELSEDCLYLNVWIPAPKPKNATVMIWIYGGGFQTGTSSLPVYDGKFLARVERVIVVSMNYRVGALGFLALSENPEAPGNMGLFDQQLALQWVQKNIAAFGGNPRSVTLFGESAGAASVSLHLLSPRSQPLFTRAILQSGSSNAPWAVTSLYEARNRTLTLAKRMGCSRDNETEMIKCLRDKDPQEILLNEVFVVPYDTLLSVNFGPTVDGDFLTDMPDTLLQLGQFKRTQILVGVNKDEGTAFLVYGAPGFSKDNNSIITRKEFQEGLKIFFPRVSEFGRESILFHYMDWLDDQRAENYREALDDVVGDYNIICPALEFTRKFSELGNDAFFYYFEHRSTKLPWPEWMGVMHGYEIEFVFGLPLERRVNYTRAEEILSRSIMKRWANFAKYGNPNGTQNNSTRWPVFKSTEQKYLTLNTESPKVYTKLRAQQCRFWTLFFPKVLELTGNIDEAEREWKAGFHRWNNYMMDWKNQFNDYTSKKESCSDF
T1 sequence (P22303 32-614): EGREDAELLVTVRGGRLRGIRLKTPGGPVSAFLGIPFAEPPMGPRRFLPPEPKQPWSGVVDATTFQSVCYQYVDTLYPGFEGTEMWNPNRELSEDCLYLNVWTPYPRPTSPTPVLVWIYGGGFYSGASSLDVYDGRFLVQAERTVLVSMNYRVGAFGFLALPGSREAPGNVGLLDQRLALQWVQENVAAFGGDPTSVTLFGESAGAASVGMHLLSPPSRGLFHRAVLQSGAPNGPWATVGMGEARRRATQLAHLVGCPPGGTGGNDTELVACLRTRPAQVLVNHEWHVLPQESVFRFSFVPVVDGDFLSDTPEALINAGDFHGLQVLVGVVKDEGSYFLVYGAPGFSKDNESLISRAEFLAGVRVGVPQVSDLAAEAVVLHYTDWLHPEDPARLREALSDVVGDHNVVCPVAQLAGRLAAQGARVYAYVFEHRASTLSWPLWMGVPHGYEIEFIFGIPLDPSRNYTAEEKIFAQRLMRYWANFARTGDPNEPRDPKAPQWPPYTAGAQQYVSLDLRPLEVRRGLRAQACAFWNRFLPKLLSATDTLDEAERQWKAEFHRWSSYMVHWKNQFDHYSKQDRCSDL

Regarding `COc1ccc(/C=C/C(=O)c2ccccc2O)cc1` [Compound 6, 2′-Hydroxy-4-methoxychalcone], the inhibition at 10 µM on human AChE [1] turned out to be 6%.
Consider `COc1cc(O)c(C(=O)/C=C/c2ccccc2Br)c(OC)c1` [Compound 13, 2-Bromo-2′-hydroxy-4′,6′-dimethoxychalcone], for which the inhibition at 10 µM on human AChE [1] (setting [3]) came out at 23%. In addition, the concentration for half-maximal inhibition (IC50) on human AChE [1] (human recombinant AChE) came to 85 ± 16 µM; against equine BChE, 71 ± 14 µM. In addition, at human AChE [2], the Ki is 113 µM.
Consider `COc1cc(O)c(C(=O)/C=C/c2ccc(N(C)C)cc2)c(OC)c1` [Compound 11, 2′-Hydroxy-4′,6′-dimethoxy-4-(dimethylamino)chalcone], for which, at human AChE [1] (setting [3]), the inhibition at 10 µM is 5%.
On to `COc1cc(O)c(C(=O)/C=C/c2cc(Cl)cc(Cl)c2O)c(OC)c1` [Compound 14, 3,5-Dichloro-2,2′-dihydroxy-4′,6′-dimethoxychalcone], for which, at human AChE [1] (setting [3]), the inhibition at 10 µM was determined as 51%. Moreover, the half-inhibitory concentration (IC50) was found to be 73 ± 22 µM on human AChE [1] (human recombinant AChE) and 81 ± 18 µM against equine BChE. In addition, on human AChE [2], the Ki is 56 µM. Besides, at equine BChE, the “Selectivity for AChE” value is on record as 1.1.
Consider `COc1ccc(/C=C/C(=O)c2c(O)cc(OC)cc2OC)cc1` [Compound 12, 2′-Hydroxy-4,4′,6′-trimethoxychalcone], for which, at human AChE [1] (setting [3]), the inhibition at 10 µM came out at 7%.
In the case of `O=C(/C=C/c1ccccc1Br)c1ccccc1O` [Compound 7, 2-Bromo-2′-hydroxychalcone], at human AChE [1] (setting [3]), the inhibition at 10 µM stood at 38%. For the same compound, the half-inhibitory concentration (IC50) at human AChE [1] (human recombinant AChE) was 55 ± 12 µM; against equine BChE, 108 ± 18 µM. The Ki at human AChE [2] worked out at 40 µM. At equine BChE, the “Selectivity for AChE” value is listed as 2.0.
Take `COc1cc(O)c(C(=O)/C=C/c2ccc(Br)cc2)c(OC)c1` [Compound 10, 4-Bromo-2′-hydroxy-4′,6′-dimethoxychalcone]: at human AChE [1] (setting [3]), the inhibition at 10 µM was 30%. Moreover, the IC50 on human AChE [1] (human recombinant AChE) came out at 41 ± 13 µM. The Ki at human AChE [2] turned out to be 31 µM. Moreover, at equine BChE, the “Selectivity for AChE” value came to 1.4 and the IC50 amounted to 59 ± 12 µM.
Consider `COc1cc(O)c(C(=O)/C=C/c2ccc(C)cc2)c(OC)c1` [Compound 9, 2′-Hydroxy-4′,6′-dimethoxy-4-methylchalcone], for which the inhibition at 10 µM at human AChE [1] (setting [3]) was found to be 23%. In addition, at human AChE [1] (human recombinant AChE), the IC50 came to 354 ± 33 µM.
Regarding `CN(C)c1ccc(/C=C/C(=O)c2ccccc2O)cc1` [Compound 5, 2′-Hydroxy-4-(dimethylamino)chalcone], on human AChE [1] (setting [3]), the inhibition at 10 µM worked out at 28%. In addition, the IC50 at human AChE [1] (human recombinant AChE) turned out to be 266 ± 48 µM.
For `O=C(/C=C/c1ccccc1)c1ccccc1O` [Compound 1, 2′-Hydroxychalcone], the inhibition at 10 µM at human AChE [1] came out at 11%.
